ChEMBL document CHEMBL1201862, “PubChem BioAssay data set” (2004)
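Values below derive from 48-hour exposures of cells grown in 96-well plates, with endpoints linearly interpolated between the two concentrations bracketing the appropriate inhibition level. At the GI50, growth is halved.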 The source made the active and inactive calls. Cut-off read from the data, not from the text of the source: active = GI50 up to about 1.1 µM and inactive = higher.

Assays:
Test in all cases: growth of human tumour cells (NCI), 48 h
M19-MEL = tested on: M19-MEL
SF-268 = tested on: SF-268
U-251 = tested on: U-251
RXF 393 = tested on: RXF 393
KM12 = tested on: KM12
DMS-273 = tested on: DMS-273
DLD-1 = tested on: DLD-1
SK-OV-3 = tested on: SK-OV-3
CCRF-CEM = tested on: CCRF-CEM
Malme-3M = tested on: Malme-3M
UO-31 = tested on: UO-31
UACC-257 = tested on: UACC-257
SNB-78 = tested on: SNB-78
RXF 631 = tested on: RXF 631
SK-MEL-28 = tested on: SK-MEL-28
SNB-75 = tested on: SNB-75
HL-60 = tested on: HL-60
DMS-114 = tested on: DMS-114
EKVX = tested on: EKVX
LOX IMVI = tested on: LOX IMVI
UACC-62 = tested on: UACC-62
LXFL 529 = tested on: LXFL 529
HCT-116 = tested on: HCT-116
HOP-92 = tested on: HOP-92
MOLT-4 = tested on: MOLT-4
ACHN = tested on: ACHN
HCT-15 = tested on: HCT-15
SW-620 = tested on: SW-620
NCI-H522 = tested on: NCI-H522
HCC 2998 = tested on: HCC 2998
SR = tested on: SR
OVCAR-4 = tested on: OVCAR-4
SN12C = tested on: SN12C
IGROV-1 = tested on: IGROV-1
NCI-H460 = tested on: NCI-H460
A549 = tested on: A549
HOP-62 = tested on: HOP-62
SK-MEL-5 = tested on: SK-MEL-5
M14 = tested on: M14
SF-295 = tested on: SF-295
OVCAR-3 = tested on: OVCAR-3
CAKI-1 = tested on: CAKI-1
HT-29 = tested on: HT-29
OVCAR-8 = tested on: OVCAR-8
A498 = tested on: A498
SNB-19 = tested on: SNB-19
COLO 205 = tested on: COLO 205
K562 = tested on: K562
786-0 = tested on: 786-0
OVCAR-5 = tested on: OVCAR-5
SF-539 = tested on: SF-539
XF498 = tested on: XF498
KM-20L2 = tested on: KM-20L2
NCI-H23 = tested on: NCI-H23
SK-MEL-2 = tested on: SK-MEL-2
RPMI-8226 = tested on: RPMI-8226
NCI-H226 = tested on: NCI-H226
HOP-18 = tested on: HOP-18
TK-10 = tested on: TK-10

CCCCCC(O)(CCCCC)CCCCCCCCC1=C(O)C(=O)c2ccc(=O)[nH]c2C1=O
GI50 (M19-MEL): 3.88 µM (inactive)
GI50 (SF-268): 5.02 µM (inactive)
GI50 (U-251): 4.72 µM (inactive)
GI50 (RXF 393): 9.38 µM (inactive)
GI50 (KM12): 11 µM (inactive)
GI50 (DMS-273): 3.59 µM (inactive)
GI50 (DLD-1): 5.37 µM (inactive)
GI50 (SK-OV-3): 15.9 µM (inactive)
GI50 (CCRF-CEM): 5.62 µM (inactive)
GI50 (Malme-3M): 3.75 µM (inactive)
GI50 (UO-31): 13.3 µM (inactive)
GI50 (UACC-257): 3.64 µM (inactive)
GI50 (SNB-78): 21.2 µM (inactive)
GI50 (RXF 631): 10.3 µM (inactive)
GI50 (SK-MEL-28): 8.32 µM (inactive)
GI50 (SNB-75): 17.5 µM (inactive)
GI50 (HL-60): 4.92 µM (inactive)
GI50 (DMS-114): 4.37 µM (inactive)
GI50 (EKVX): 13.4 µM (inactive)
GI50 (LOX IMVI): 11.7 µM (inactive)
GI50 (UACC-62): 3.2 µM (inactive)
GI50 (LXFL 529): 3.94 µM (inactive)
GI50 (HCT-116): 4.34 µM (inactive)
GI50 (HOP-92): 13.3 µM (inactive)
GI50 (MOLT-4): 6.3 µM (inactive)
GI50 (ACHN): 6.37 µM (inactive)
GI50 (HCT-15): 4.22 µM
GI50 (SW-620): 8 µM (inactive)
GI50 (NCI-H522): 4.78 µM (inactive)
GI50 (HCC 2998): 14.5 µM (inactive)
GI50 (SR): 27.3 µM (inactive)
GI50 (OVCAR-4): 1.87 µM (inactive)
GI50 (SN12C): 7.64 µM (inactive)
GI50 (IGROV-1): 5.53 µM (inactive)
GI50 (NCI-H460): 8.85 µM (inactive)
GI50 (A549): 5.41 µM (inactive)
GI50 (HOP-62): 10.4 µM (inactive)
GI50 (SK-MEL-5): 3.78 µM (inactive)
GI50 (M14): 10 µM (inactive)
GI50 (SF-295): 4.37 µM (inactive)
GI50 (OVCAR-3): 4.23 µM (inactive)
GI50 (CAKI-1): 11.2 µM (inactive)
GI50 (HT-29): 15.3 µM (inactive)
GI50 (OVCAR-8): 9.06 µM (inactive)
GI50 (A498): 12.2 µM (inactive)
GI50 (SNB-19): 5.48 µM (inactive)
GI50 (COLO 205): 17.9 µM (inactive)
GI50 (K562): 5.07 µM (inactive)
GI50 (786-0): 8.63 µM (inactive)
GI50 (OVCAR-5): 20.3 µM (inactive)
GI50 (SF-539): 7.6 µM (inactive)
GI50 (XF498): 3.6 µM (inactive)
GI50 (KM-20L2): 13.1 µM (inactive)
GI50 (NCI-H23): 2.61 µM (inactive)
GI50 (SK-MEL-2): 3.06 µM (inactive)
GI50 (RPMI-8226): 4.12 µM (inactive)
GI50 (NCI-H226): 8.36 µM (inactive)

O=C1OC(=O)C([Se]c2ccccc2)=C1[Se]c1ccccc1
GI50 (SF-268): > 100 µM (inactive)
GI50 (U-251): > 100 µM (inactive)
GI50 (RXF 393): > 100 µM (inactive)
GI50 (DLD-1): > 100 µM (inactive)
GI50 (SK-OV-3): > 100 µM (inactive)
GI50 (CCRF-CEM): > 100 µM (inactive)
GI50 (Malme-3M): > 100 µM (inactive)
GI50 (UACC-257): > 100 µM (inactive)
GI50 (SNB-78): > 100 µM (inactive)
GI50 (RXF 631): > 100 µM (inactive)
GI50 (SK-MEL-28): > 100 µM (inactive)
GI50 (SNB-75): > 100 µM (inactive)
GI50 (HL-60): > 100 µM (inactive)
GI50 (DMS-114): > 100 µM (inactive)
GI50 (EKVX): > 100 µM (inactive)
GI50 (LOX IMVI): > 100 µM (inactive)
GI50 (UACC-62): > 100 µM (inactive)
GI50 (LXFL 529): > 100 µM (inactive)
GI50 (HCT-116): > 100 µM (inactive)
GI50 (HOP-18): > 100 µM (inactive)
GI50 (HOP-92): 70.1 µM (inactive)
GI50 (MOLT-4): > 100 µM (inactive)
GI50 (ACHN): > 100 µM (inactive)
GI50 (HCT-15): > 100 µM
GI50 (SW-620): > 100 µM (inactive)
GI50 (NCI-H522): > 100 µM (inactive)
GI50 (SR): > 100 µM (inactive)
GI50 (OVCAR-4): > 100 µM (inactive)
GI50 (SN12C): > 100 µM (inactive)
GI50 (IGROV-1): > 100 µM (inactive)
GI50 (NCI-H460): > 100 µM (inactive)
GI50 (A549): > 100 µM (inactive)
GI50 (HOP-62): > 100 µM (inactive)
GI50 (SK-MEL-5): > 100 µM (inactive)
GI50 (M14): > 100 µM (inactive)
GI50 (TK-10): > 100 µM (inactive)
GI50 (SF-295): > 100 µM (inactive)
GI50 (OVCAR-3): > 100 µM (inactive)
GI50 (CAKI-1): > 100 µM (inactive)
GI50 (HT-29): 44.9 µM (inactive)
GI50 (OVCAR-8): > 100 µM (inactive)
GI50 (A498): > 100 µM (inactive)
GI50 (SNB-19): > 100 µM (inactive)
GI50 (COLO 205): > 100 µM (inactive)
GI50 (K562): > 100 µM (inactive)
GI50 (786-0): > 100 µM (inactive)
GI50 (OVCAR-5): > 100 µM (inactive)
GI50 (SF-539): > 100 µM (inactive)
GI50 (KM-20L2): > 100 µM (inactive)
GI50 (NCI-H23): 32.4 µM (inactive)
GI50 (RPMI-8226): > 100 µM (inactive)
GI50 (NCI-H226): > 100 µM (inactive)

S=C(Nc1ccccc1)Nc1[nH]c(=S)sc1-c1nc2ccccc2[nH]1
GI50 (M19-MEL): > 100 µM (inactive)
GI50 (SF-268): 48.9 µM (inactive)
GI50 (U-251): 80 µM (inactive)
GI50 (RXF 393): > 100 µM (inactive)
GI50 (KM12): > 100 µM (inactive)
GI50 (DMS-273): 37.8 µM (inactive)
GI50 (DLD-1): 76.9 µM (inactive)
GI50 (SK-OV-3): 37.9 µM (inactive)
GI50 (CCRF-CEM): > 100 µM (inactive)
GI50 (Malme-3M): 43 µM (inactive)
GI50 (UO-31): > 100 µM (inactive)
GI50 (UACC-257): > 100 µM (inactive)
GI50 (SNB-78): 36.1 µM (inactive)
GI50 (RXF 631): 65.6 µM (inactive)
GI50 (SK-MEL-28): 73.5 µM (inactive)
GI50 (SNB-75): 38.5 µM (inactive)
GI50 (HL-60): > 100 µM (inactive)
GI50 (EKVX): 75.9 µM (inactive)
GI50 (LOX IMVI): 61.4 µM (inactive)
GI50 (UACC-62): 57.9 µM (inactive)
GI50 (LXFL 529): 29.6 µM (inactive)
GI50 (HOP-18): > 100 µM (inactive)
GI50 (MOLT-4): > 100 µM (inactive)
GI50 (ACHN): 72.4 µM (inactive)
GI50 (HCT-15): 98.2 µM
GI50 (SW-620): > 100 µM (inactive)
GI50 (NCI-H522): 62.4 µM (inactive)
GI50 (HCC 2998): > 100 µM (inactive)
GI50 (OVCAR-4): 15.2 µM (inactive)
GI50 (SN12C): > 100 µM (inactive)
GI50 (IGROV-1): 94.2 µM (inactive)
GI50 (A549): 65.6 µM (inactive)
GI50 (HOP-62): 23.1 µM (inactive)
GI50 (SK-MEL-5): 28.8 µM (inactive)
GI50 (M14): 49.8 µM (inactive)
GI50 (TK-10): 40.1 µM (inactive)
GI50 (SF-295): 41.9 µM (inactive)
GI50 (OVCAR-3): 30.6 µM (inactive)
GI50 (CAKI-1): 94 µM (inactive)
GI50 (HT-29): > 100 µM (inactive)
GI50 (OVCAR-8): 48.8 µM (inactive)
GI50 (A498): > 100 µM (inactive)
GI50 (SNB-19): 36.9 µM (inactive)
GI50 (COLO 205): > 100 µM (inactive)
GI50 (K562): > 100 µM (inactive)
GI50 (786-0): 34.2 µM (inactive)
GI50 (OVCAR-5): > 100 µM (inactive)
GI50 (SF-539): 28.6 µM (inactive)
GI50 (NCI-H23): > 100 µM (inactive)
GI50 (SK-MEL-2): 38.4 µM (inactive)
GI50 (RPMI-8226): 97.3 µM (inactive)
GI50 (NCI-H226): 12.2 µM (inactive)
